What all share (experiment): NCI tumour cell line growth inhibition, 48 h
Experiment [1] deals with LOX IMVI.
Experiment [2] relates to UACC-62.
In experiment [3] the test system is MCF7.
Experiment [4] has as its system NCI-H522.
Experiment [5] has as its system OVCAR-4.
The subject of experiment [6] is COLO 205.
The test system of experiment [7] is MOLT-4.
The subject of experiment [8] is Hs-578T.
Experiment [9] has as its system A549.
For experiment [10], the system named is PC-3.
The test system of experiment [11] is SN12C.
In experiment [12] the test system is DU-145.
For experiment [13], the system named is RPMI-8226.
The subject of experiment [14] is RXF 393.
In experiment [15] the test system is SK-MEL-5.
In experiment [16] the test system is Malme-3M.
The subject of experiment [17] is SF-539.
The subject of experiment [18] is MDA-MB-231.
In experiment [19] the test system is TK-10.

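Method: 48-hour compound exposure of cells in 96-well plates, five concentrations, linear interpolation of endpoints. At the GI50, growth is halved.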 Calls of active or inactive are those of the source. Cut-off read from the data, not from the text of the source: active = GI50 up to about 1.1 µM and inactive = higher. A value given as a limit tells only on which side of the number the result lay.

On to `COc1ccc(-c2c(C(=O)Nc3ccccc3)c(-c3ccccc3)n(C3OC(CO)C(O)C(O)C3O)c(=S)c2C#N)cc1` (stereo not given), for which the GI50 in experiment [1], in [2], in [3], in experiment [4], in experiment [5] and in experiment [6] was > 100 µM (inactive) throughout. The GI50 in [7], in [8], in experiment [9], in experiment [10], in experiment [11] and in [12] was > 100 µM (inactive) throughout. For the same compound, the GI50 in experiment [13], in experiment [14], in [15] and in experiment [16] was > 100 µM (inactive) each time.

`O=[N+]([O-])/C(C(Cl)=C(Cl)Cl)=C(/Nc1cccc2cccnc12)n1nnc2ccccc21`: the GI50 in [3] was 19.6 µM (inactive); in experiment [5], 17.2 µM (inactive); in experiment [6], 17.3 µM (inactive); in experiment [17] it was 13.4 µM (inactive); in experiment [7], 3.57 µM (inactive); in [8], 11.9 µM (inactive). Also, the GI50 in [9] was 27.3 µM (inactive); in [10] it was 19.2 µM (inactive); in experiment [11] it was 16.3 µM (inactive); in [13], 24.5 µM (inactive); in [16], 6.85 µM (inactive).

Consider `COc1ccc2oc(=O)c(-c3nc4ccccc4s3)cc2c1`, for which the GI50 in experiment [1] is 17.8 µM (inactive); in experiment [2], 43.5 µM (inactive); in experiment [4], 29.4 µM (inactive); in [5], 20.8 µM (inactive); in [6], 54.1 µM (inactive); in experiment [18], 18.7 µM (inactive). Also, the GI50 in [19] was 32.2 µM (inactive); in experiment [17], 3.92 µM (inactive); in experiment [7], > 77.6 µM (inactive); in experiment [8], 23.2 µM (inactive); in experiment [9] it was 19.9 µM (inactive); in experiment [10], 63.8 µM (inactive). Moreover, the GI50 is 33.4 µM (inactive) in [11]; 21.8 µM (inactive) in [12]; > 62.7 µM (inactive) in experiment [13]; 12.2 µM (inactive) in [14]; 33.5 µM (inactive) in experiment [15]; 8.61 µM (inactive) in experiment [16].

Regarding `CCN1C[C@]2(COC)[C@H](O)C[C@H](OC)[C@]34C1[C@H]([C@H](OC)[C@H]23)[C@]1(OC(C)=O)[C@H]2[C@@H](OC(=O)c3ccccc3)[C@](O)(C[C@H]24)[C@@H](OC)[C@@H]1O`, the GI50 in experiment [1], in experiment [2], in experiment [3], in experiment [4], in experiment [5] and in experiment [6] was > 100 µM (inactive) in each case. Further, the GI50 is > 100 µM (inactive) in experiment [18]; > 100 µM (inactive) in [19]; > 100 µM (inactive) in experiment [17]; > 10 µM (inactive) in experiment [7]; > 100 µM (inactive) in experiment [8]; > 100 µM (inactive) in experiment [9]. For the same compound, the GI50 in experiment [10], in experiment [11], in experiment [12], in [15] and in [16] was > 100 µM (inactive) each time.

Regarding `CC[C@H](NC(=O)OC(C)(C)C)C(=O)NCP(=O)(OCc1ccc([N+](=O)[O-])cc1)OCc1ccc([N+](=O)[O-])cc1`, the GI50 in [1] is 32.4 µM (inactive); in [2] it was 18.3 µM (inactive); in experiment [3] it was 48.9 µM (inactive); in experiment [4] it was 31.6 µM (inactive); in experiment [5], 25.1 µM (inactive); in experiment [6], 16.5 µM (inactive). Besides, the GI50 in experiment [18] is 26.4 µM (inactive); in experiment [19], 30.6 µM (inactive); in experiment [17], 31.8 µM (inactive); in [7], 21.5 µM (inactive); in [8], 37.2 µM (inactive); in experiment [9], 27.7 µM (inactive). Also, the GI50 in [10] was 34.8 µM (inactive); in experiment [11], 29.1 µM (inactive); in [12] it was 31.6 µM (inactive); in experiment [13], 27.7 µM (inactive); in experiment [15], 13.5 µM (inactive); in experiment [16] it was 53.5 µM (inactive).

In the case of `O=C(O)c1cc(CCc2ccc(O)c(O)c2)ccc1O`, the GI50 in experiment [2], in [3], in experiment [4], in [6], in experiment [17] and in experiment [7] was > 100 µM (inactive) each time. Further, the GI50 in [8], in experiment [9], in experiment [10], in [11], in experiment [12] and in [15] was > 100 µM (inactive) in each case. Moreover, the GI50 in experiment [16] was > 100 µM (inactive).

On to `C=C(C)CC1(O)C(=O)C(OCC)=C1OCC` (stereo not given), for which the GI50 in [1], in [2], in experiment [3], in experiment [4], in experiment [5] and in experiment [6] was > 100 µM (inactive) each time. Besides, the GI50 in experiment [18], in [19], in experiment [17], in experiment [7], in experiment [8] and in experiment [9] was > 100 µM (inactive) each time. Also, the GI50 was > 100 µM (inactive) in experiment [10]; > 100 µM (inactive) in experiment [11]; > 100 µM (inactive) in [12]; > 100 µM (inactive) in experiment [15]; 48.1 µM (inactive) in experiment [16].

For the compound `Cc1cc2cc3c(Cl)c(CCCl)c(C)nc3cc2c(Cl)c1CCCl`, the GI50 in [1] was 15.2 µM (inactive); in experiment [2], 15.6 µM (inactive); in experiment [3], 26.9 µM (inactive); in experiment [4] it was 19.2 µM (inactive); in experiment [5], 18.1 µM (inactive); in experiment [6] it was 16.6 µM (inactive). Further, the GI50 in [19] is 23.6 µM (inactive); in [17] it was 12.1 µM (inactive); in experiment [7], 16 µM (inactive); in experiment [8], 9.84 µM (inactive); in experiment [9], 17.8 µM (inactive); in [10] it was 14.4 µM (inactive). In addition, the GI50 is 21.6 µM (inactive) in [12]; 14 µM (inactive) in experiment [13]; 4.33 µM (inactive) in experiment [14]; 12.6 µM (inactive) in experiment [15]; 20.8 µM (inactive) in [16].

As for `OC1CC(O)c2c(Cl)sc(Cl)c21` (stereo not given), the GI50 in experiment [1] was 52.6 µM (inactive); in experiment [2], 42.8 µM (inactive); in experiment [3], 31.1 µM (inactive); in experiment [4], 23 µM (inactive); in experiment [5] it was 8.79 µM (inactive); in experiment [6] it was 18.2 µM (inactive). Moreover, the GI50 in experiment [18] was 32.1 µM (inactive); in [19], 36 µM (inactive); in experiment [17], > 100 µM (inactive); in experiment [7] it was 51.5 µM (inactive); in experiment [8], 36 µM (inactive); in [9], 11.7 µM (inactive). Also, the GI50 in [11] was 46.3 µM (inactive); in experiment [12] it was 43.4 µM (inactive); in experiment [14] it was < 0.01 µM (active); in experiment [15], 47 µM (inactive); in experiment [16], 36.3 µM (inactive).

For the compound `C[N+](C)([O-])Cc1cc(-c2ccccc2)ccc1O`, the GI50 in experiment [1], in experiment [2], in [4], in [5], in experiment [18] and in [19] was > 100 µM (inactive) each time. Further, the GI50 was 52.5 µM (inactive) in experiment [7]; 79.3 µM (inactive) in experiment [8]; > 100 µM (inactive) in experiment [9]; > 100 µM (inactive) in experiment [10]; > 100 µM (inactive) in experiment [11]; > 100 µM (inactive) in experiment [12]. Moreover, the GI50 in [14], in [15] and in [16] was > 100 µM (inactive) each time.

As for `COc1cc(O)c2c(=O)cc(C3(OC(C)=O)C=CC(OC4OC(CO)C(O)C(O)C4O)C=C3)oc2c1` (stereo not given), the GI50 in [1], in experiment [2], in [3], in experiment [4], in [5] and in experiment [6] was > 100 µM (inactive) in each case. Further, the GI50 in [18], in experiment [19], in [17], in experiment [7], in experiment [9] and in experiment [10] was > 100 µM (inactive) throughout. For the same compound, the GI50 in experiment [11], in experiment [12], in [13], in experiment [14], in experiment [15] and in [16] was > 100 µM (inactive) each time.

For the compound `O=C(O)c1ccccc1/C=C1\Cc2ccc3c(c2C1=O)CCCC3`, the GI50 was 40 µM (inactive) in experiment [1]; 21.1 µM (inactive) in experiment [2]; 48.3 µM (inactive) in experiment [3]; 25.2 µM (inactive) in experiment [4]; 41.6 µM (inactive) in [5]; 34.4 µM (inactive) in experiment [6]. Also, the GI50 in experiment [18] is 21.4 µM (inactive); in [19], 75.2 µM (inactive); in [17] it was 26.4 µM (inactive); in experiment [7] it was 25.2 µM (inactive); in [8], 34.1 µM (inactive); in experiment [9] it was 42.7 µM (inactive). In addition, the GI50 is 26.2 µM (inactive) in [11]; 41.4 µM (inactive) in experiment [12]; 26.9 µM (inactive) in experiment [13]; 30.5 µM (inactive) in experiment [14]; 15.9 µM (inactive) in experiment [15]; 41.8 µM (inactive) in experiment [16].
